From patent US20190133980A1, “Compositions and methods for targeting and treating homologous recombination-deficient tumors” (YALE UNIVERSITY, priority 2016, published 2019)

What was measured:
[1] = test system: WT and R132H/+ HCT116 cells; test: Neutral comet assay, HCT116; type: cell-based, Human
Description: (§1) Neutral comet assays were performed per manufacturer's protocol (Trevigen). Briefly, cells were trypsinized, washed with PBS and suspended in LM Agarose (Trevigen). Neutral electrophosesis was conducted at 21V for 1 hour in the CometAssay Electrophoresis System (Trevigen). Data were collected with an EVOS FL microscope (Advanced Microscopy Group) and analyzed using AutoComet software (TriTek Corporation). For each experiment, three biological replicates each with >50 cells were measured, and reported values are mean±SEM.

[2] = test system: wild-type or IDH1-R132H heterozygous astrocytes; test: Long-term colony forming (clonogenic survival) assay, astrocytes; type: cell-based, Human; settings: FIG. 2B
Description: (§2) Cells were counted and diluted in media containing various concentration of drug. They were then immediately seeded in 6-well plates in triplicate at 3-fold dilutions, ranging from 9000 to 37 cells per well. These plates were kept in the incubator for 10 to 14 days, following which they were washed in PBS, stained with Crystal Violet, and quantified. Each experiment was performed twice, and values reported are mean ±standard deviation.

[3] = test system: wild-type and IDH1-R132H heterozygous HCT116 cells; test: Short-term growth delay assay, HCT116; type: cell-based, Human
Description: (§3) Cells were plated in 96-well black-walled plates (Costar) at a concentration of 2.5 k/well and allowed to adhere at room temperature for 60 minutes prior to return to the incubator. For growth delay assays containing octyl-(R)-2HG, cells were cultured with indicated concentration for 10 days prior to plating. 24 hours later, the media was changed and indicated drugs dissolved in either DMSO or DMF (cisplatin only) were added in quadruplicate at varying concentrations. For synergy experiments, cells were replica-plated and drugs added in single wells at the indicated concentrations. At 96 hours after the addition of drugs, cells were washed in PBS, fixed in 70% ethanol, and stained with Hochst at 1 μg/mL. The plates were then imaged on a Cytation 3 automated imager (BioTek), and cells were counted using CellProfiler (cellprofiler.org/). Each experiment was performed three times and values from a representative experiment are reported as mean±SEM. For synergy experiments, experiments were analyzed for synergistic interactions using Combenefit (www.cruk.cam.ac.uk/research-groups/jodrell-group/combenefit).

[4] = test system: wild-type or IDH1-R132H heterozygous astrocytes; test: Short-term growth delay assay, astrocytes; type: cell-based, Human; settings: for sensitization of IDH1-mutant versus WT cells to single DNA damaging agent: FIG. 6A, single agents
Description: as §3, with “For growth delay assays containing octyl-(R)-2HG, cells were cultured with indicated concentration for 10 days prior to plating. 24 hours later, the media was changed and indicated drugs dissolved in either DMSO or DMF (cisplatin only) were added in quadruplicate at varying concentrations.” left out

[5] = test system: wild-type or IDH1-R132H heterozygous HCT116 cells; test: Long-term colony forming assay, HCT116; type: cell-based, Human; settings: FIG. 5E; at 10 nM BMN-673
Description: as §2

[6] = test system: HCT116 IDH1-WT and -mutant tumors; test: In vivo BMN 673 efficacy study, subcutaneous flank xenografts; design: species or system nude mice; settings: BMN-673 0.33 mg/kg oral gavage once daily for 21 days vs vehicle
Description: All animal experiments were performed in compliance with our institution's IACUC committee. Four week-old female athymic nu/nu mice were used for all in vivo xenograft studies. Mice were quarantined for at least 1 week before experimental manipulation. Human HCT116 cells (with and without IDH1 mutation) were implanted subcutaneously (3-5×10^6 cells in 0.1 cc PBS) in the right flank of nude mice. When tumors reached an average volume of approximately 100 mm^3, mice were randomized into various treatment groups (5-7 mice/group) in each study. Animals were not randomized, but were grouped based on tumor size such that tumors were roughly equivalent in size when treatment was begun. The investigator was not blinded throughout the experiment. Mice were visually observed daily and tumors were measured three times per week by calipers to determine tumor volume using the formula: […]
BMN 673 was solubilized in DMSO and diluted with PBS containing 10% dimethylacetamide (Sigma-Aldrich) and 6% Solutol (Sigma-Aldrich). […] Tumor tripling time was calculated as the time required for tumors to increase in volume threefold over baseline at the time of treatment initiation. P-values were determined by Mann-Whitney U test (Stata). Kaplan-Meier curves were generated with survival fraction determined by the number of mice alive with tumor volume smaller than three times the initial pre-treatment volume. […]

[7] = test system: homologous recombination (HR) in U2OS DR-GFP cells; test: U2OS DR-GFP chromosomal HR reporter assay; type: cell-based; settings: for suppression of HR: after 10 days of culture in 300 μM octyl-(R)-2-hydroxyglutarate vs DMSO
Description: These reporter assays are carried out as previously described ([…] et al., Molecular cancer research: MCR 13, 1389-1397 (2015)). Briefly, after 10 days of culture in (2R)-Octyl-alpha-hydroxyglutarate (Cayman), 1×10^6 cells were transfected in triplicate with 4 μg pI-SceI using the Amaxa Nucleofector II and Nucleofection Kit V (Lonza) per manufacturer's protocol. 72 h after transfection, cells were analyzed for GFP expression using flow cytometry, and the data was analyzed using FlowJo software to calculate %GFP positive cells. Values reported are mean±SEM.

[8] = test system: IDH1-WT U2OS DR-GFP cells; test: Neutral comet assay, U2OS; type: cell-based; settings: 24 h exposure to DMOG
Description: as §1

In the case of `O=[N+]([O-])c1cc([N+](=O)[O-])c(/C=C/c2ccc(Cl)c(Cl)c2)cc1/C=C/c1ccc(Cl)c(Cl)c1` [NSC-636819], the “doses at which the increase in DSBs was observed” value ([1]; HCT116 IDH-WT cells) is reported as 12.5 to 50 µM, the “DSBs (comet tail moment) in HCT116 IDH-WT cells” value ([1]; NSC-636819 treatment, HCT116 IDH-WT) is reported as “dose-dependent increase in elevated DSBs, which approached the levels seen in untreated HCT116 IDH-mutant cells” and the “comet tail moments in HCT116 IDH-mutant cells” value ([1]; NSC-636819 treatment, HCT116 IDH-mutant) is reported as “did not further increase comet tail moments”.

`Cn1ncnc1[C@H]1c2n[nH]c(=O)c3cc(F)cc(c23)N[C@@H]1c1ccc(F)cc1` [BMN-673] was tested, and the “increase in sensitivity of IDH1-R132H versus wild-type astrocytes” value ([2]; at 10 nM BMN-673) was “ten-fold increase in sensitivity”, the “decrease in cell survival of IDH1-mutant compared to WT cells” value ([2]; clonogenic survival, dose of 10 nM) was 10 fold and the “difference in IC50 between wild-type and IDH1-R132H heterozygous HCT116” value ([3]; FIG. 5D) was “nearly eight-fold difference in IC50”. For the same molecule, the “decrease in IC50 in R132H mutants versus wild-type” value ([4]; FIG. 2A, BMN-673 dose response, 96 hours after addition of drug) was “four-fold decrease in IC50”, the “difference in cell viability between wild-type and IDH1-R132H heterozygous HCT116” value [5] was “roughly ten-fold difference in cell viability” and the “tumor growth in IDH1-WT tumors” value ([6]; HCT116 IDH1-WT xenografts) was “minimal effects”. The “tumor growth in IDH1-mutant tumors” value ([6]; HCT116 IDH1-mutant xenografts) was “significant growth delay”.

`COC(=O)CNC(=O)C(=O)OC` [DMOG, dimethyloxalylglycine] was tested, and the HR activity ([7]; 24 h pretreatment with DMOG) was “dose dependent HR suppression” and the “baseline DSBs” value [8] was “dose dependent increase in baseline DSBs”.

With `O=C(O)CCC(O)C(=O)O` (stereo not drawn) [2-HG, 2-hydroxyglutarate] the “ability of treatment alone to reproduce the IDH1-associated HR defect” value ([7]; FIG. 1I, FIGS. 3H-3I, wild-type cells) was “recapitulate the IDH1-associated HR defect”, the “suppression of HR” value ([7]; FIG. 1I) was “dramatic, and it approached levels seen with siRNAs targeting two key HR genes, RAD51 and BRCA2” and the “PARP inhibitor (BMN-673) sensitivity of WT cells after 2-HG treatment” value ([3]; FIGS. 2C-2D, wild-type HCT116, octyl-(R)-2HG with 300 nM BMN-673, or 900 μM octyl-(R)-2HG with BMN-673 dose response) was “recapitulate the enhanced PARP inhibitor sensitivity seen in IDH1-mutant cells”.

With `N.N.[Cl][Pt][Cl]` [cisplatin] the “synergy between BMN-673 and cisplatin” value ([4]; FIG. 2F, 8 nM BMN-673 and 1 cisplatin, IDH1 wild-type vs IDH1-R132H astrocytes) was “IDH1-R132H-dependent synergy”, the “sensitization of IDH1-mutant versus WT cells to single DNA damaging agent” value [4] was “modest, but detectable sensitization” and the “synergistic interaction with BMN-673 in IDH1-mutant tumor cells” value ([4]; FIGS. 2E-F, 6B (cisplatin, astrocytes), FIG. 6C (TMZ, IDH1-R132H HCT116), Combenefit analysis) was “dramatic synergistic interaction”.

For `CCc1c2c(nc3ccc(OC(=O)N4CCC(N5CCCCC5)CC4)cc13)-c1cc3c(c(=O)n1C2)COC(=O)[C@]3(O)CC` [irinotecan], the “sensitization of IDH1-mutant versus WT cells to single DNA damaging agent” value [4] was “modest, but detectable sensitization”.

`COS(C)(=O)=O` [MMS, Methyl methanesulfonate] was tested, and the “sensitization of IDH1-mutant versus WT cells to single DNA damaging agent” value [4] was “modest, but detectable sensitization”.

“(2R)-octyl-α-hydroxyglutarate [octyl-(R)-2-hydroxyglutarate]” was tested, and the “suppression of HR” value ([7]; FIG. 1I) was “comparable in magnitude to RAD51 or BRCA2 suppression by siRNA knockdown”.
